How the values were obtained:
[1] = target: T1, Beta-adrenergic receptor kinase 1 (Bos taurus, UniProt P21146); experiment: Inhibition of bovine GRK2 expressed in baculovirus infected insect cell using tubulin as substrate incubated for 5 mins in presence of [gamma-32P]-ATP by radiometric assay
T1 sequence (P21146 whole entry): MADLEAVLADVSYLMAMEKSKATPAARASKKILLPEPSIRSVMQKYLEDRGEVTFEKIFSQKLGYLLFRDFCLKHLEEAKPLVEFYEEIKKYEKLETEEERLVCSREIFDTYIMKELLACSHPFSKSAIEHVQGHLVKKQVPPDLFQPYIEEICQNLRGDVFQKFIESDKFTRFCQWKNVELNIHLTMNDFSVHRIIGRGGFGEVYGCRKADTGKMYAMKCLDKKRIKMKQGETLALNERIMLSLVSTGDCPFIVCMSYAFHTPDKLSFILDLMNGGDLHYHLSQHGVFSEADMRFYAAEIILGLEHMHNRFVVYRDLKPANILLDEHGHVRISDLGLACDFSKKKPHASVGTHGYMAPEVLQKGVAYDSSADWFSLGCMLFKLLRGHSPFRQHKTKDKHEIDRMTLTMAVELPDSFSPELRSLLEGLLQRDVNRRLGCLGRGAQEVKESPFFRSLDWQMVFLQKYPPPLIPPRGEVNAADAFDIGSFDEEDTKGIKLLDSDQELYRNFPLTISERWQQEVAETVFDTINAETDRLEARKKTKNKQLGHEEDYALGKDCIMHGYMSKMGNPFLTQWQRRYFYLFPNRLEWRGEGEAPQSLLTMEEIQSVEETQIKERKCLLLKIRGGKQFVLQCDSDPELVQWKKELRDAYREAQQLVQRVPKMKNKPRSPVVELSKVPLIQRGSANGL

[2] = Selectivity index, ratio of IC50 for inhibition of bovine GRK2 to IC50 for inhibition of human GRK5
[3] = target: G protein-coupled receptor kinase 5 (Homo sapiens, UniProt P34947); experiment: Inhibition of human GRK5 (1 to 590) expressed in Escherichia coli using tubulin as substrate incubated for 5 mins in presence of [gamma-32P]-ATP by radiometric assay
Chain of G protein-coupled receptor kinase 5 (P34947 whole entry): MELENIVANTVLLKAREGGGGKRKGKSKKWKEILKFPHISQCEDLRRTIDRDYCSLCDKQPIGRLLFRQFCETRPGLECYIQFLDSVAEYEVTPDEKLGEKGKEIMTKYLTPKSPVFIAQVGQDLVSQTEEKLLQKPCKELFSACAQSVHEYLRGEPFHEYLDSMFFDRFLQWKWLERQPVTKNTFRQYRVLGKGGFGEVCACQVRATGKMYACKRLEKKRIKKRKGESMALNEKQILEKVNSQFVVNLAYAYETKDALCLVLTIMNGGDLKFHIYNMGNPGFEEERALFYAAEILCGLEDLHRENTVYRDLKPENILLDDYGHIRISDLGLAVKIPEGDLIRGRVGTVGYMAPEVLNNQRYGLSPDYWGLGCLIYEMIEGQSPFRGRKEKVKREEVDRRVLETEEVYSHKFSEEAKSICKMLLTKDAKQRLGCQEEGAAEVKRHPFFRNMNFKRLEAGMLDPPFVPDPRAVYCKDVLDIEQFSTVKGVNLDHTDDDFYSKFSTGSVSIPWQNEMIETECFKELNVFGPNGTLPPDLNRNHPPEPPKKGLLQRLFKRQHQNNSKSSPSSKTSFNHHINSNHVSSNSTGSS

Compound	IC50 [1] [µM]	Ratio IC50 [2]	IC50 [3] [µM]
Cc1[nH]c(/C=C2\C(=O)Nc3ccc(C(=O)N[C@H](C)c4ccc(F)cc4)cc32)c(C)c1NC(=O)[C@H](C)O	100	–	–
Cc1[nH]c(/C=C2\C(=O)Nc3ccc(C(=O)N[C@H](C)c4ccc(F)cc4)cc32)c(C)c1NC(=O)[C@@H](O)c1ccccc1	90	–	–
Cc1[nH]c(/C=C2\C(=O)Nc3ccc(C(=O)NCc4ccc(F)cc4)cc32)c(C)c1NC(=O)[C@H](O)c1ccccc1	30	–	–
Cc1[nH]c(/C=C2\C(=O)Nc3ccc(C(=O)N[C@H](C)c4ccc(F)cc4)cc32)c(C)c1NC(=O)C(=O)c1ccco1	> 1000	–	–

The next lines start with the values.

IC50 [1] [µM]	Ratio IC50 [2]	IC50 [3] [µM]	Compound
600	–	–	Cc1[nH]c(/C=C2\C(=O)Nc3ccc(C(=O)N[C@H](C)c4ccc(F)cc4)cc32)c(C)c1NC(=O)[C@@H](C)O
2.2	–	–	Cc1[nH]c(/C=C2\C(=O)Nc3ccc(C(=O)NCc4ccc(F)cc4)cc32)c(C)c1NC(=O)[C@@H](O)c1ccco1
200	–	–	CC(=O)C(=O)Nc1c(C)[nH]c(/C=C2\C(=O)Nc3ccc(C(=O)N[C@H](C)c4ccc(F)cc4)cc32)c1C
> 1000	900	1.1	Cc1[nH]c(/C=C2\C(=O)Nc3ccc(C(=O)N[C@H](C)c4ccc(F)cc4)cc32)c(C)c1NC(=O)C(=O)c1ccccc1
